The values below come from US7375124B2, “Use of α-phenylthiocarboxylic and α-phenyloxycarboxylic acids with serum-glucose-lowering and serum-lipid-lowering activity” (Sigma-Tau Industrie Farmaceutiche Riunite S.p.A., priority 2002, dated 2008).

The subject of data set [1] is C57BL/KsJ db/db mouse. The experiment in a line: Antidiabetic and serum-lipid-lowering activity in the db/db mouse (Experiments I and II). To be noted: Experiment I; for Glucose: blood.
From the text: (§1) Plasma levels of glucose, insulin, triglycerides, cholesterol, free fatty acids and urea were checked for a well-matched distribution of mice in the treatment groups.
(§2) At the start of treatment the body weights of the mice were checked and arrangements were made for monitoring water and feed consumption.
(§3) In the course of the experiment, serum glucose levels, oral glucose tolerance test (OGTT) findings, a number of lipid status parameters and weight gain were monitored.
In data set [2] the test system is C57BL/KsJ db/db mouse. The settings on record: in vivo.
From the text: as §1, §2, §3
Where [3] appears, read: after 25 days' treatment, postabsorption, 7.5 hours after last treatment.
Setting [4] is: after 25 days' treatment, postabsorption, 7.5 hours after last treatment, mean ± S.E.

One may read the melting point as the temperature of the solid-liquid transition. Turning to `CC(C)(Sc1ccc(OCCc2ccc3ccccc3c2)cc1)C(=O)O` [Example 19, 2-[4-[2-(2-naphthyl)ethoxy]phenylthio]-2-methylpropanoic acid], the melting point was 103 to 104 °C.

`COC(=O)C(C)(C)Sc1cccc(OCc2ccc(-c3ccc([N+](=O)[O-])cc3)o2)c1` [Example 22, methyl 2-[3-[5-(4-nitrophenyl)furfuryloxy]phenylthio]isobutyrate] came in with a melting point of 81 to 82 °C.

Turning to `CC(C)(Oc1ccc(CCNC(=O)c2ccc(Cl)cc2)cc1)C(=O)O` [Bezafibrate, bezafibrate, reference compound], the “Variation % (glucose) vs control” value in the data set with C57BL/KsJ db/db mouse [1] (after 12 days' treatment, feeding state, approx. 15 hours after last treatment) is on record as “+3%”. Moreover, the “Variation % (glucose) vs control” value with C57BL/KsJ db/db mouse [1] (after 12 days' treatment, postabsorption, 8 hours after last treatment) is reported as “+2%”. Further, the “Variation % (AUC glucose at OGTT) vs control” value in the data set on C57BL/KsJ db/db mouse [1] (after 18 days' treatment, OGTT glucose 3 g/kg) is listed as −13%. Besides, the “AUC glucose at OGTT” value in the data set on C57BL/KsJ db/db mouse [1] (after 18 days' treatment, OGTT glucose 3 g/kg, fasting 18 hours, 5 hours after last treatment, mean ± S.E.) was 44476 ± 1827 a.u. For the same compound, the “Variation % (glucose) vs control” value in the data set with C57BL/KsJ db/db mouse [1] (after 18 days' treatment, fasting 18 hours, 6 hours after last treatment) was −13%. In addition, in the data set with C57BL/KsJ db/db mouse [1] (after 25 days' treatment), the “Variation % (HDL-cholesterol) vs control” value is “+14%” and the “Variation % (triglycerides) vs control” value is −7%. In addition, the “Glucose (plasma)” value with C57BL/KsJ db/db mouse [1] (after 25 days' treatment, postabsorption (fasting 9 a.m. to 4.30 p.m.), 7.5 hours after last treatment, mean ± S.E.) worked out at 536 ± 22 mg/dL. Further, in the data set on C57BL/KsJ db/db mouse [1] (setting [3]), the “Variation % (fructosamine) vs control” value is on record as “+26%” and the “Variation % (plasma glucose) vs control” value is given as “+18%”. Further, in the data set with C57BL/KsJ db/db mouse [1] (setting [4]), the “Fructosamine (plasma)” value was 1.01 ± 0.04Δ mM, the “HDL-choles. (plasma)” value stood at 93.8 ± 3.8 mg/dL and the “Triglycerides (plasma)” value came to 88.3 ± 12.7 mg/dL. In addition, in the data set with C57BL/KsJ db/db mouse [1] (after 12 days' treatment, postabsorption (fasting 9 a.m. to 5 p.m.), 8 hours after last treatment, mean ± S.E.), the Glucose turned out to be 421 ± 30 mg/dL. The compound also registered a Glucose with C57BL/KsJ db/db mouse [1] (after 18 days' treatment, fasting 18 hours, 6 hours after last treatment, mean ± S.E.) of 298 ± 21 mg/dL. Moreover, the Glucose with C57BL/KsJ db/db mouse [1] (db/db mice, oral twice daily, after 12 days' treatment, feeding state, approx. 15 hours after last treatment, mean ± S.E.) is 503 ± 21 mg/dL. In the data set with C57BL/KsJ db/db mouse [2], the Final b.w. is given as 35.2 ± 1.3 g, the Initial b.w. amounted to 33.7 ± 0.7 g, the “Variation % (final b.w.) vs control” value is listed as “+24%” and the “Variation % (initial b.w.) vs control” value is recorded as “+6%”.

`CC(C)(Sc1cccc(OCc2ccc(-c3ccc([N+](=O)[O-])cc3)o2)c1)C(=O)O` [Example 25, 2-methyl-2-[3-[5-(4-nitrophenyl)furfuryloxy]phenylthio]propanoic acid] came in with a melting point of 137 to 138 °C.

The compound `COC(=O)C(C)(C)Sc1ccc(OCCn2c3ccccc3c3ccccc32)cc1` [Example 7, methyl 2-[4-(2-(carbazol-9-yl)ethoxy)phenylthio]isobutyrate] displayed a melting point of 72 to 74 °C.

Regarding `COC(=O)C(C)(C)Sc1ccc(OCCc2ccc(Cl)cc2Cl)cc1` [Example 5, methyl 2-[4-(2-(2,4-dichlorophenyl)ethoxy)phenylthio]isobutyrate], the melting point lay in the range of 73 to 74 °C.

Turning to `COC(=O)C(C)(C)Sc1cccc(OCCn2c3ccccc3c3ccccc32)c1` [Example 6, methyl 2-[3-(2-(carbazol-9-yl)ethoxy)phenylthio]isobutyrate], the melting point was 101 to 103 °C.

Compound `COC(=O)C(C)(C)Sc1ccc(OCCc2ccc3ccccc3c2)cc1` [Example 11, methyl 2-[4-[2-(2-naphthyl)ethoxy]phenylthio]isobutyrate] registered a melting point of 56 to 57 °C.

Compound `CC(C)(Sc1ccc(OCCc2ccc(Cl)cc2)cc1)C(=O)O` [Example 12, 2-[4-[2-(4-chlorophenyl)ethoxy]phenylthio]-2-methylpropanoic acid] gave a melting point of 87 to 88 °C.
